Assay [1] can be described thus: In vitro effective concentration against beta amyloid protein 40 in ELISA.
The nature of assay [2]: In vitro effective concentration against beta amyloid protein 42 in ELISA.
Assay [3] can be described thus: In vitro inhibition of amyloid precursor protein 695 activity in CHO cells expressing human APP.

A word on the EC50: it is the midpoint of the concentration-response curve.

Regarding `CCOC(=O)N1CCC(c2ccccc2C)(S(=O)(=O)c2ccc(Cl)cc2)CC1` [4-(4-Chloro-benzenesulfonyl)-4-o-tolyl-piperidine-1-carboxylic acid ethyl ester], the EC50 in assay [1] turned out to be 2.7 µM; in assay [2] it was 3.7 µM.

`CCCNC(=O)OC[C@@H](C)N(c1cc(Cl)ccc1CO)S(=O)(=O)c1ccc(Cl)cc1` [BMCL18464 Compound 14]: the midpoint of the response in assay [1], the EC50, lay at 0.1 µM.

For `CCOC(=O)N1CCC(c2ccccc2OC)(S(=O)(=O)c2ccc(OC)cc2)CC1` [4-(4-Methoxy-benzenesulfonyl)-4-(2-methoxy-phenyl)-piperidine-1-carboxylic acid ethyl ester], in assay [1], the concentration giving a half-maximal response (EC50) was found to be 50.6 µM. This EC50 is about 510-fold higher than that of the molecule before.

Turning to `CCOC(=O)N1CCC(c2ccccc2)(S(=O)(=O)c2ccc(Cl)cc2)CC1` [ethyl 4-[(4-chlorobenzene)sulfonyl]-4-phenylpiperidine-1-carboxylate], the EC50 came to 12.2 µM in assay [1] and 20.9 µM in assay [2].

`CCOC(=O)N1CCC(c2ccccc2)(S(=O)(=O)c2ccc(OC)cc2)CC1` [4-(4-Methoxy-benzenesulfonyl)-4-phenyl-piperidine-1-carboxylic acid ethyl ester]: it took 97 µM to reach a half-maximal effect in assay [1] (EC50).

In the case of `CCOC(=O)N1CCC(c2ccccc2OC)(S(=O)(=O)c2ccc(Cl)cc2)CC1` [ethyl 4-(4-chlorophenylsulfonyl)-4-(2-methoxyphenyl)piperidine-1-carboxylate], the values for the EC50 in assay [3], in assay [1] and in assay [2] were 1.03 µM, 3.5 µM and 5 µM, respectively.

`CCOC(=O)N1CCC(c2ccccc2C)(S(=O)(=O)c2ccccc2)CC1` [4-Benzenesulfonyl-4-o-tolyl-piperidine-1-carboxylic acid ethyl ester] had an EC50 in assay [1] of 48.6 µM.

Regarding `CCOC(=O)N1CCC(c2ccccc2C)(S(=O)(=O)c2ccc(OC)cc2)CC1` [4-(4-Methoxy-benzenesulfonyl)-4-o-tolyl-piperidine-1-carboxylic acid ethyl ester], the 50% effective concentration (EC50) in assay [1] came out at 24.5 µM.

Consider `CCOC(=O)N1CCC(c2ccccc2OC)(S(=O)(=O)c2ccccc2)CC1` [4-Benzenesulfonyl-4-(2-methoxy-phenyl)-piperidine-1-carboxylic acid ethyl ester], for which, in assay [1], a half-maximal response (EC50) required 62.7 µM.
